In US8809341B2, “2,4-pyrimidinediamine compounds and uses as anti-proliferative agents” (Rigel Pharmaceuticals, Inc., priority 2003, dated 2014):
Each block holds one compound with its values, some of them ahead of it.

Experiments:
A549 cells = test: in vitro antiproliferation assay, A549 (lung); assay type: cell-based
How it was run: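 Standard in vitro antiproliferation assays on tumour cell lines, including A549 and H1299 (both lung); IC50 values determined.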

H1299 cells = test: in vitro antiproliferation assay, H1299 (lung); assay type: cell-based
Protocol: The IC50 values of various compounds against a various different tumor cell lines were determined using standard in vitro antiproliferation assays. The tumor cell lines tested were as follows: A549 (lung); H1299 (lung), ACHN (kidney/p53 wt), CAKI (renal cell carcinoma), NCI-H460 (lung); HCT116 (colon/p53w0; HELA (cervix/p53 wt), HUH7 (liver/p53 wt), HUVEC (primary endothelial), LNCAP (prostate), HT-29 (colon); MCF-7 (breast); MCF-7 (breast/ER positive), MDA MB435S (breast); MDA MB231 (breast/ER negative), DU145 (prostate); BxPC-3 (pancreatic); SKOV-3 (ovarian); HepG2 (hepatic), NDHF primary normal human dermal fibroblast), SKMEL28 (breast/p53mut), SKMEL5 (breast/p53 wt), U20S (bone) and PC3 (prostate). […] A blank indicates the specified compound was not tested against the specified cell line.

[1] = A549 (lung) cells, in vitro antiproliferation
[2] = H1299 (lung) cells, in vitro antiproliferation
[3] = A549 (lung) cells, antiproliferation
[4] = H1299 (lung) cells, antiproliferation
[5] = Table 5, in vitro antiproliferation, A549 (lung) cells
[6] = Table 5, in vitro antiproliferation, H1299 (lung) cells
[7] = IC50 class against A549 (lung) tumor cells
[8] = IC50 class against H1299 (lung) tumor cells
[9] = Table 7, in vitro antiproliferation, A549 (lung) cells
[10] = Table 7, in vitro antiproliferation, H1299 (lung) cells
[11] = in vitro antiproliferation, A549 (lung) cells, Table 4, compounds with no designated stereochemistry tested as racemate
[12] = in vitro antiproliferation, H1299 (lung) cells, Table 4, compounds with no designated stereochemistry tested as racemate
[13] = Homo sapiens, A549 (lung) cells
[14] = Homo sapiens, NCI-H1299, H1299 (lung) cells

SMILES: Cc1cc(Nc2ncc(F)c(Nc3ccc4c(c3)OC(F)(F)C(F)(F)O4)n2)cc(C(F)(F)F)c1 [compound 538]
- IC50 (A549 cells; [5]): ≤ 20 µM
- IC50 (H1299 cells; [6]): > 20 µM

SMILES: CC1(C)COc2ccc(Nc3nc(Nc4cccc(-c5cnco5)c4)ncc3F)cc2N1 [compound 592]
- IC50 (A549 cells; [7]): > 20 µM
- IC50 (H1299 cells; [8]): > 20 µM

SMILES: CNC(=O)COc1cccc(Nc2ncc(F)c(NC3CCC3)n2)c1 [compound 109]
- IC50 (A549 cells; [7]): ≤ 20 µM
- IC50 (H1299 cells; [8]): ≤ 20 µM

SMILES: COC(=O)c1cc2cc(Nc3ncc(F)c(Nc4cc(OC)cc(OC)c4)n3)ccc2o1 [compound 656]
- IC50 (A549 cells; [9]): > 20 µM
- IC50 (H1299 cells; [10]): > 20 µM

SMILES: CCN1CCN(c2ccc(Nc3ncc(F)c(NC(C)C)n3)cn2)CC1 [compound 225]
- IC50 (A549 cells; [7]): ≤ 20 µM
- IC50 (H1299 cells; [8]): ≤ 20 µM

SMILES: COc1ccc(Nc2ncc(F)c(Nc3ccc4c(c3)NC(=O)C(C)(C)S4(=O)=O)n2)cc1F [compound 287]
- IC50 (A549 cells; [11]): ≤ 20 µM
- IC50 (H1299 cells; [12]): ≤ 20 µM

SMILES: CN1CCN(c2ccc(Nc3ncc(F)c(NC(C)(C)C)n3)cc2Cl)CC1 [compound 222]
- IC50 (A549 cells; [7]): ≤ 20 µM
- IC50 (H1299 cells; [8]): ≤ 20 µM

SMILES: CC(=O)N1CCN(c2cccc(Nc3ncc(F)c(Nc4ccc5c(n4)NCCO5)n3)c2)CC1 [compound 606]
- IC50 (A549 cells; [7]): ≤ 20 µM
- IC50 (H1299 cells; [8]): ≤ 20 µM

SMILES: COc1ccc(Nc2ncc(F)c(Nc3ccc4c(c3)NC(=O)CS4)n2)cc1F [compound 290]
- IC50 (A549 cells; [11]): ≤ 20 µM
- IC50 (H1299 cells; [12]): ≤ 20 µM

SMILES: CC(C)Nc1nc(Nc2ccc(N3CCN(C)CC3)c(C(F)(F)F)c2)ncc1F [compound 218]
- IC50 (A549 cells; [7]): ≤ 20 µM
- IC50 (H1299 cells; [8]): ≤ 20 µM

SMILES: COc1ccc(Nc2nc(Nc3cc(CO)cc(CO)c3)ncc2F)cc1Cl [compound 843]
- IC50 (A549 cells; [1]): ≤ 20 µM
- IC50 (H1299 cells; [2]): ≤ 20 µM

SMILES: COc1cc(Nc2nc(Nc3cc(C)cc(C(F)(F)F)c3)ncc2F)cc(C(F)(F)F)c1 [compound 820]
- IC50 (A549 cells; [1]): > 20 µM
- IC50 (H1299 cells; [2]): ≤ 20 µM

SMILES: CNC(=O)c1cc2cccc(Nc3ncc(F)c(Nc4cc(C)cc(C)c4)n3)c2[nH]1 [compound 668]
- IC50 (A549 cells; [9]): > 20 µM
- IC50 (H1299 cells; [10]): ≤ 20 µM

SMILES: Cc1cc(C)cc(Nc2ncc(F)c(Nc3ccc4c(c3)OCO4)n2)c1 [compound 544]
- IC50 (A549 cells; [5]): > 20 µM
- IC50 (H1299 cells; [6]): > 20 µM

The remaining lines, values ahead:

- IC50 (A549 cells; [1]): ≤ 20 µM
- IC50 (H1299 cells; [2]): ≤ 20 µM
SMILES: COc1ccc(Nc2nc(Nc3ccc(N4CCN(C(C)=O)CC4)cc3)ncc2F)cc1OC [compound 863]

- IC50 (A549 cells; [3]): ≤ 20 µM
- IC50 (H1299 cells; [4]): ≤ 20 µM
SMILES: CNS(=O)(=O)c1ccc(Nc2ncc(F)c(Nc3cc(OC)cc(OC)c3)n2)cc1OC [compound 880]

- IC50 (A549 cells; [3]): ≤ 20 µM
- IC50 (H1299 cells; [4]): ≤ 20 µM
SMILES: CNC(=O)COc1ccc(Nc2nc(Nc3ccc(OC)c(Cl)c3)ncc2F)cc1Cl [compound 917]

- IC50 (A549 cells; [7]): ≤ 20 µM
- IC50 (H1299 cells; [8]): ≤ 20 µM
SMILES: CC(C)Nc1ncc(F)c(N(C)c2ccc3c(c2)OCCO3)n1 [compound 1041]

- IC50 (A549 cells; [3]): > 20 µM
- IC50 (H1299 cells; [4]): > 20 µM
SMILES: NC(=O)c1ccc(Nc2ncc(F)c(Nc3ccc(C(N)=O)cc3)n2)cc1 [compound 1029]

- IC50 (A549 cells; Homo sapiens, IC50 class against A549 (lung) tumor cells): ≤ 20 µM
- IC50 (H1299 cells; Homo sapiens, NCI-H1299, IC50 class against H1299 (lung) tumor cells): ≤ 20 µM
SMILES: COc1c(C)cc(Nc2ncc(F)c(Nc3cccc(Nc4ncc[nH]4)c3)n2)cc1C [compound 1050]

- IC50 (A549 cells; [3]): ≤ 20 µM
- IC50 (H1299 cells; [4]): ≤ 20 µM
SMILES: COc1ccc(Nc2ncc(F)c(Nc3ccc(C(N)=O)cc3)n2)cc1Cl [compound 1028]

- IC50 (A549 cells; A549 (lung) cells): ≤ 20 µM
- IC50 (H1299 cells; H1299 (lung) cells): ≤ 20 µM
SMILES: COc1cc(Nc2nc(Nc3ccc4cnn(C(C)(C)CC5CCC5)c4c3)ncc2F)ccc1F [compound 1105]

- IC50 (A549 cells; A549 (lung) cells): > 20 µM
- IC50 (H1299 cells; H1299 (lung) cells): > 20 µM
SMILES: CCCn1ncc2cc(Nc3ncc(F)c(Nc4ccc(Cl)c(Cl)c4)n3)ccc21 [compound 1075]

- IC50 (A549 cells; A549 (lung) cells): ≤ 20 µM
- IC50 (H1299 cells; H1299 (lung) cells): ≤ 20 µM
SMILES: COc1cc(Nc2nc(Nc3ccc4c(cnn4C(C)(C)CC4CCC4)c3)ncc2F)ccc1F [compound 1101]

- IC50 (A549 cells; [13]): ≤ 20 µM
- IC50 (H1299 cells; [14]): ≤ 20 µM
SMILES: COc1cc(Nc2nc(Nc3cc(OC)c(Cl)cc3OC)ncc2F)cc(OC)c1 [compound 1159]

- IC50 (A549 cells; [3]): ≤ 20 µM
- IC50 (H1299 cells; [4]): ≤ 20 µM
SMILES: NC(=O)c1ccc(Nc2ncc(F)c(Nc3ccccc3)n2)cc1 [compound 1036]

- IC50 (A549 cells; [3]): ≤ 20 µM
- IC50 (H1299 cells; [4]): ≤ 20 µM
SMILES: CNC(=O)COc1cccc(Nc2ncc(F)c(Nc3ccc(N4CCN(C(=O)OC)CC4)cc3)n2)c1 [compound 993]

- IC50 (A549 cells; [13]): ≤ 20 µM
- IC50 (H1299 cells; [14]): ≤ 20 µM
SMILES: COc1ccc(Nc2nc(Nc3cc(OC)c(Cl)cc3OC)ncc2F)cc1Cl [compound 1158]

- IC50 (A549 cells; A549 (lung) cells): ≤ 20 µM
- IC50 (H1299 cells; H1299 (lung) cells): ≤ 20 µM
SMILES: COc1ccc(Nc2nc(Nc3ccc4c(cnn4C(C)(C)CC4CC4)c3)ncc2F)cc1Cl [compound 1106]

- IC50 (A549 cells; [13]): ≤ 20 µM
- IC50 (H1299 cells; [14]): ≤ 20 µM
SMILES: CNc1ncc(F)c(Nc2cc(Cl)c(OC)c(Cl)c2)n1 [compound 1160]
